# Experimental data published in patent US12319655B2, “RAF kinase inhibitors and methods of use thereof” (Deciphera Pharmaceuticals, LLC, priority 2021, dated 2025).
# What was measured:
# [1] = biological target: A-Raf kinase (SEQ. ID No: 1) (Homo sapiens (Human), UniProt P10398, Y301D/Y302D); assay: Biochemical Assay for A-Raf (1); details: Table J, assay version (1); read-out: ARAF (1) IC50
# Outline: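 A-Raf Y301D/Y302D at 5.55 nM phosphorylates 30.1 nM MEK with 1 mM ATP in pH 7.5 Tris buffer, 1% DMSO. Activity was read continuously as NADH oxidation at 340 nm in a pyruvate kinase/lactate dehydrogenase coupled system for 6 h at 30 °C. Rates from 4–5 h were converted to percent inhibition, and IC50 came from a four-parameter fit.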
# [2] = biological target: B-Raf (V600E) (SEQ. ID NO: 4) kinase (Homo sapiens (Human), UniProt P15056, V600E); assay: Biochemical Assay for B-Raf (V600E) (1); details: Table J, BRAF V600E, assay version (1); read-out: BRAF VE (1) IC50
# B-Raf (V600E) (SEQ. ID NO: 4) kinase, sequence (P15056 416-766 V600E): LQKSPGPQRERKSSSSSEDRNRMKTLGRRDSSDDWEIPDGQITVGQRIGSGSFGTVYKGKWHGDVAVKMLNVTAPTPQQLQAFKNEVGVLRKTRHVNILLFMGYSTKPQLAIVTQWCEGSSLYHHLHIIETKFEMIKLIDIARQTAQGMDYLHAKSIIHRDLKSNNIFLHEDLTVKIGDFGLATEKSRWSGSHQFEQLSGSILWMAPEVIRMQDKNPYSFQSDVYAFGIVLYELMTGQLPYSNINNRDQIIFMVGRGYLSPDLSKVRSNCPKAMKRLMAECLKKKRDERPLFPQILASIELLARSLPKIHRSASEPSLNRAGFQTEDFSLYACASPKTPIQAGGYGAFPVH
# Outline: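 Coupled pyruvate kinase/lactate dehydrogenase assay: 0.03 nM B-Raf V600E, 30.1 nM MEK, 1 mM ATP, pH 7.5 Tris/MgCl2 buffer, 1% DMSO. NADH oxidation followed at 340 nm for 6 h at 30 °C; rate from 3–4 h converted to percent inhibition, IC50 by four-parameter fit.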
# Miapaca-2 cells = assay: MiaPaca-2 Cell Proliferation Assay (1); format: cell-based; details: Homo sapiens, MIA PaCa-2, single agent, read-out: MiaPaca2 (1) IC50
# Outline: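 Resazurin was added after compound exposure and incubated 5-6 h, then fluorescence read at 540 nm excitation and 600 nm emission to give IC50.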
# WM3928 cells = assay: WM3928 Cell Proliferation Assay (1); format: cell-based
# Outline: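 IC50 was derived from resazurin fluorescence (ex 540, em 600 nm) after a 6–7 h dye incubation. Before that, cells had 67–72 h of compound exposure at 37 °C, 5% CO2.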
# A-Raf kinase (SEQ. ID No: 1), sequence (P10398 other isoform, or with tags, fused parts or gaps Y301D (already in the parent)/Y302D (already in the parent)): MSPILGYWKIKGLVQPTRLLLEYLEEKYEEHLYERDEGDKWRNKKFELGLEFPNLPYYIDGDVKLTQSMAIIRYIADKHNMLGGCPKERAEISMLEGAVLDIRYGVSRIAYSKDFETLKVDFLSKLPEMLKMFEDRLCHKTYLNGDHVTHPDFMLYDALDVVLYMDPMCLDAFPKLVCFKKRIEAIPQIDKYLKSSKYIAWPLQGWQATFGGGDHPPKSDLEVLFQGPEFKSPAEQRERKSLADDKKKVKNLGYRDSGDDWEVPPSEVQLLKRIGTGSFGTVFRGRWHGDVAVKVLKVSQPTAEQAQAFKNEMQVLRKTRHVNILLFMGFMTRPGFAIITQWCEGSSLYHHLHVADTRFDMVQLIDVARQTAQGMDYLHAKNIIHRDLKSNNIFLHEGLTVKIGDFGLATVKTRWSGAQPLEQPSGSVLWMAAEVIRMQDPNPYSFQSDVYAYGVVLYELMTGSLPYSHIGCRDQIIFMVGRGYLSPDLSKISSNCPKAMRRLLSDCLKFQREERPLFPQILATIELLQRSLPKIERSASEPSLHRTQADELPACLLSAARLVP
SMILES,IC50 [1],IC50 [2],IC50 (Miapaca-2 cells),IC50 (WM3928 cells)
CCOc1cc(-c2cc(NC(=O)c3ccnc(C(F)(F)F)c3)ccc2C)cc(-c2ccnc(NC(=O)C3CC3)c2)n1 [Example 12],1 to 10 µM,≤ 0.1 µM,1 to 10 µM,
Cc1ccc(NC(=O)c2ccnc(C(F)(F)F)c2)cc1-c1cc(-c2ccnc(NC(=O)C3CC3)c2)n(C)c(=O)c1 [Example 13],1 to 10 µM,≤ 0.1 µM,1 to 10 µM,
CC(=O)Nc1cc(-c2cc(-c3cc(NC(=O)c4ccnc(C(F)(F)F)c4)ccc3C)cc(C3CC3)n2)ccn1 [Example 14],1 to 10 µM,≤ 0.1 µM,1 to 10 µM,
CC(=O)Nc1cc(-c2cc(-c3cc(NC(=O)c4ccnc(C(F)(F)F)c4)ccc3C)cc(N3CCOCC3)n2)ccn1 [Example 15],1 to 10 µM,≤ 0.1 µM,1 to 10 µM,
"Cc1ccc(NC(=O)c2ccnc(C(F)(F)F)c2)cc1-c1ccnc(-c2ccnc(N)c2)c1 [Example 16, N-(3-(2′-amino-[2,4′-bipyridin]-4-yl)-4-methylphenyl)-2-(trifluoromethyl)isonicotinamide]",1 to 10 µM,≤ 0.1 µM,1 to 10 µM,1 to 10 µM
Cc1ccc(NC(=O)c2ccnc(C(F)(F)F)c2)cc1-c1ccnc(-c2ccnc(NC(=O)CN(C)C)c2)c1 [Example 17],1 to 10 µM,≤ 0.1 µM,1 to 10 µM,
Cc1ccc(NC(=O)c2ccnc(C(F)(F)F)c2)cc1-c1ccnc(-c2ccnc3c2CC(=O)N3)c1 [Example 18],1 to 10 µM,≤ 0.1 µM,1 to 10 µM,
CC(=O)Nc1cc(-c2cc(-c3cc(NC(=O)c4ccnc(C(C)(C)C#N)c4)ccc3C)ccn2)ccn1 [Example 19],0.5 to 1 µM,≤ 0.1 µM,0.1 to 0.5 µM,
Cc1cc(-c2cc(NC(=O)c3ccnc(C(F)(F)F)c3)ccc2C)cc(-c2ccnc3c2CC(=O)N3)n1 [Example 20],1 to 10 µM,≤ 0.1 µM,1 to 10 µM,
Cc1ccc(NC(=O)c2cc(CN(C)C)cc(C(F)(F)F)c2)cc1-c1cncc(-c2ccnc(NC(=O)C3CC3)c2)n1 [Example 185],0.1 to 0.5 µM,≤ 0.1 µM,,≤ 0.1 µM
Cc1ccc(NC(=O)c2ccnc(C(C)(C)F)c2)cc1-c1ccnc(-c2ccnc(NC(=O)C3CC3)c2)n1 [Example 186],0.5 to 1 µM,≤ 0.1 µM,1 to 10 µM,≤ 0.1 µM
Cc1ccc(NC(=O)c2ccnc(C3(C#N)CC3)c2)cc1-c1nccc(-c2ccnc(NC(=O)C3CC3)c2)n1 [Example 187],0.1 to 0.5 µM,≤ 0.1 µM,1 to 10 µM,≤ 0.1 µM
Cc1ccc(NC(=O)c2ccnc(C(F)F)c2)cc1-c1ccnc(-c2ccnc(NC(=O)C3CC3)c2)n1 [Example 189],0.5 to 1 µM,≤ 0.1 µM,1 to 10 µM,≤ 0.1 µM
COC(C)(C)c1cc(C(=O)Nc2ccc(C)c(-c3ccnc(-c4ccnc(NC(=O)C5CC5)c4)n3)c2)ccn1 [Example 190],0.5 to 1 µM,≤ 0.1 µM,1 to 10 µM,≤ 0.1 µM
CNC(=O)c1cc(-c2cccc(-c3cc(NC(=O)c4ccnc(C(C)(C)C#N)c4)ccc3C)c2)cnn1 [Example 191],1 to 10 µM,≤ 0.1 µM,,≤ 0.1 µM
CNC(=O)c1cc(-c2cccc(-c3cc(NC(=O)c4ccnc(C(C)(C)C#N)c4)cnc3C)c2)ccn1 [Example 192],1 to 10 µM,≤ 0.1 µM,1 to 10 µM,≤ 0.1 µM
Cc1ncc(NC(=O)c2ccnc(C(C)(C)C#N)c2)cc1-c1ccnc(-c2ccnc(NC(=O)C3CC3)c2)n1 [Example 193],1 to 10 µM,≤ 0.1 µM,1 to 10 µM,≤ 0.1 µM
CNC(=O)c1cc(-c2nccc(-c3cc(NC(=O)c4ccnc(C(C)(C)C#N)c4)cnc3C)n2)ccn1 [Example 194],1 to 10 µM,≤ 0.1 µM,1 to 10 µM,0.1 to 0.5 µM
CNC(=O)c1cc(-c2nc(-c3cc(NC(=O)c4ccnc(C(C)(C)C#N)c4)ccc3C)cc(C3CC3)n2)ccn1 [Example 196],1 to 10 µM,≤ 0.1 µM,,0.1 to 0.5 µM
CNC(=O)c1cc(-c2ccnc(-c3cc(NC(=O)c4ccnc(C(C)(C)C#N)c4)cnc3C)n2)ccn1 [Example 199],1 to 10 µM,≤ 0.1 µM,,1 to 10 µM
CNC(=O)c1cc(-c2cccc(-c3cc(NC(=O)c4ccnc(C(C)(C)C#N)c4)cnc3C)c2)cnn1 [Example 201],1 to 10 µM,≤ 0.1 µM,,0.1 to 0.5 µM
CNC(=O)c1cc(-c2cc(-c3cc(NC(=O)c4ccnc(C(C)(C)C#N)c4)ccc3F)ccn2)ccn1 [Example 205],1 to 10 µM,≤ 0.1 µM,,0.1 to 0.5 µM
Cc1ncc(NC(=O)c2ccnc(C(C)(C)C#N)c2)cc1-c1cccc(-c2cc(N)ncn2)c1 [Example 207],1 to 10 µM,≤ 0.1 µM,,

# Now from value to compound, other results behind:
IC50 [1],IC50 [2],IC50 (Miapaca-2 cells),SMILES,IC50 (WM3928 cells)
1 to 10 µM,≤ 0.1 µM,1 to 10 µM,Cc1cc(-c2cc(NC(=O)C3CC3)ncn2)cc(-c2cc(NC(=O)c3ccnc(C(C)(C)C#N)c3)ccc2C)c1 [Example 212],
0.5 to 1 µM,≤ 0.1 µM,,Cc1ccc(NC(=O)c2ccnc(C(C)(C)C#N)c2)cc1-c1cccc(-c2ccnc(NC(=O)C3CC3)c2)c1 [Example 223],≤ 0.1 µM
1 to 10 µM,≤ 0.1 µM,,COC(C)(C)C(=O)Nc1cc(-c2cc(-c3cc(NC(=O)c4ccnc(C(C)(C)C#N)c4)ccc3C)ccn2)ccn1 [Example 237],
1 to 10 µM,≤ 0.1 µM,,CC(C)(C#N)c1cc(C(=O)Nc2ccc(C#N)c(-c3cccc(-c4cc(NC(=O)C5CC5)ncn4)c3)c2)ccn1 [Example 240],
1 to 10 µM,≤ 0.1 µM,,CNC(=O)c1cc(-c2ccnc(-c3cc(NC(=O)c4ccnc(C(C)(C)C#N)c4)c(F)cc3C)n2)ccn1 [Example 242],0.1 to 0.5 µM
1 to 10 µM,≤ 0.1 µM,,CNC(=O)c1cc(-c2ccnc(-c3cc(NC(=O)c4ccnc(C(C)(C)F)c4)ccc3C)n2)ccn1 [Example 246],
1 to 10 µM,≤ 0.1 µM,,CNC(=O)c1cc(-c2cc(-c3cc(NC(=O)c4ccnc(C(C)(C)C#N)c4)ccc3C#N)ccn2)ccn1 [Example 247],
1 to 10 µM,≤ 0.1 µM,,Cc1ccc(NC(=O)c2ccnc(C3CC3)c2)cc1-c1cccc(-c2cc(NC(=O)C3CC3)ncn2)c1 [Example 255],≤ 0.1 µM
1 to 10 µM,≤ 0.1 µM,,CNC(=O)c1cc(-c2cc(-c3cc(NC(=O)c4ccnc(C(C)(C)C#N)c4)ccc3F)cc(C)n2)ccn1 [Example 259],
1 to 10 µM,≤ 0.1 µM,,CCNC(=O)c1cc(-c2cc(-c3cc(NC(=O)c4ccnc(C(C)(C)C#N)c4)ccc3C)ccn2)ccn1 [Example 266],
1 to 10 µM,≤ 0.1 µM,,CNC(=O)c1cc(-c2ccnc(-c3cc(NC(=O)c4ccnc(C(C)(C)OC)c4)ccc3C)n2)ccn1 [Example 268],
1 to 10 µM,≤ 0.1 µM,,Cc1ncc(NC(=O)c2ccnc(C(C)C)c2)cc1-c1cccc(-c2ccnc(NC(=O)C3CC3)c2)n1 [Example 269],
0.1 to 0.5 µM,≤ 0.1 µM,,Cc1cc(F)c(NC(=O)c2ccnc(C(C)(C)F)c2)cc1-c1cncc(-c2ccnc(NC(=O)C3CC3)c2)n1 [Example 276],
1 to 10 µM,≤ 0.1 µM,,Cc1ncc(NC(=O)c2ccnc(C3CC3)c2)cc1-c1ccnc(-c2ccnc(NC(=O)C3CC3)c2)n1 [Example 277],0.1 to 0.5 µM
